≈ marks a conversion by molar mass, not a printed value. Entries after “also recorded” stand apart in the source; their conditions may differ. Read-outs that look alike come from different tables or passages of the source.
How the values were obtained:
[1] = literature antibacterial activity, strain not stated; cited from earlier work
E. coli ACC = E. coli ACC (Escherichia coli, UniProt P0A9Q5+P0ABD5+P24182); test: ACC activity fluorescence polarization assay; assay type: biochemical; conditions: for IC50: IC50, fluorescence polarization assay, triplicate, ± SD; for Ki: Ki (apparent, Morrison equation), tight binding inhibitors (IC50 < 0.5 nM), fluorescence polarization assay
E. coli ΔtolC = assay type: cell-based
ACC complex = ACC complex (Escherichia coli, UniProt P0A9Q5+P0ABD5+P24182); test: Spin-column LC-MS/MS competition assay; assay type: binding, E. coli; conditions: for dissociation from ACC with 1 and 3 together: 50 μM of 1 and 3 together added to ACC-inhibitor complex; for dissociation from ACC with 1 alone: 100 μM of 1 alone added to ACC-inhibitor complex
Sequence of ACC complex (P0A9Q5 whole entry): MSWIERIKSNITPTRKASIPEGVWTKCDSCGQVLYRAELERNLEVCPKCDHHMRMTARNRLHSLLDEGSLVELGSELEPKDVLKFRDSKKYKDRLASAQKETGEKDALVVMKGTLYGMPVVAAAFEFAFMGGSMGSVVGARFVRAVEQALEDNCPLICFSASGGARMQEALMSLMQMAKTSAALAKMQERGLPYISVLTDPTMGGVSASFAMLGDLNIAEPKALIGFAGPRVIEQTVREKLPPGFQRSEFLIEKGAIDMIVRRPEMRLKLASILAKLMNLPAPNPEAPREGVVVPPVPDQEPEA
Sequence of ACC complex (P0ABD5 whole entry): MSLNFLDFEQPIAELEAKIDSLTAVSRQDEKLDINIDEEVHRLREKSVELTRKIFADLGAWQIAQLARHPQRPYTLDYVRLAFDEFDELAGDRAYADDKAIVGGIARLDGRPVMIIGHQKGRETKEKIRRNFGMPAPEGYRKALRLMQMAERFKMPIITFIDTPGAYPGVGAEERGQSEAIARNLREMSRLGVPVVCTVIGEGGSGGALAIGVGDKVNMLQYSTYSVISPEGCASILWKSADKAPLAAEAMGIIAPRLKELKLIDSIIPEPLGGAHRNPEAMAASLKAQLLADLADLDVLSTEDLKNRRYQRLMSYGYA

Sequence of E. coli ACC (P0ABD5 whole entry): as above
Sequence of E. coli ACC (P0A9Q5 whole entry): as the sequence (P0A9Q5 whole entry) above

## Nc1ncc(C(=O)N(Cc2ccccc2)Cc2ccccc2)o1 [Compound 2]
[1]
  MIC: > 64 µg/mL

## C/C=C/C=C/C(=O)N[C@@H](CC(=O)N[C@H](C(=O)[C@@H]1C(=O)NC(=O)[C@H]1C)C(C)C)c1ccccc1 [Compound 3, moiramide B, reference compound]
E. coli ACC
  IC50: 5 nM

## C#CCCCCOCCOCCOCCOCCOCCOCCOc1cc(Br)c(-c2cc3cnc(N)nc3nc2N)c(Br)c1 [Compound 9c-p, 6-(2,6-dibromo-4-(3,6,9,12,15,18-hexaoxatetracos-23-yn-1-yloxy)phenyl)pyrido[2,3-d]pyrimidine-2,7-diamine]
E. coli ACC
  IC50: > 500 nM

## C#CCCCCOCCOCCOCCOCCOCCOCCOCCOCCOCCOCCOCCOCCOc1ccc(Br)c(-c2cc3cnc(N)nc3nc2N)c1Br [Compound 9e, 6-(2,6-dibromo-3-(3,6,9,12,15,18,21,24,27,30,33,36-dodecaoxadotetracont-41-yn-1-yloxy)phenyl)pyrido[2,3-d]pyrimidine-2,7-diamine]
E. coli ΔtolC; PMBN 6 μM (8 μg/mL)
  MIC ΔtolC + PMBN: 12.5 µM

## CC(C)[C@H](NC(=O)C[C@H](NC(=O)CCCCCCCCCCn1cc(CCCCOc2ccc(Br)c(-c3cc4cnc(N)nc4nc3N)c2Br)nn1)c1ccccc1)C(=O)[C@@H]1C(=O)NC(=O)[C@H]1C [Compound 15, 11-(4-(4-(2,4-dibromo-3-(2,7-diaminopyrido[2,3-d]pyrimidin-6-yl)phenoxy)butyl)-1H-1,2,3-triazol-1-yl)-N-((1S)-3-(((2S)-3-methyl-1-((3R,4S)-4-methyl-2,5-dioxopyrrolidin-3-yl)-1-oxobutan-2-yl)amino)-3-oxo-1-phenylpropyl)undecanamide]
ACC complex
  dissociation from ACC with 1 and 3 together: rapid dissociation
  dissociation from ACC with 1 alone: little or no dissociation

## CC(C)[C@H](NC(=O)C[C@H](NC(=O)CCCCCCCCCCn1cc(CCCCOCCOCCOCCOc2ccc(Br)c(-c3cc4cnc(N)nc4nc3N)c2Br)nn1)c1ccccc1)C(=O)[C@@H]1C(=O)NC(=O)[C@H]1C [Compound 16, 11-(4-(4-(2-(2-(2-(2,4-dibromo-3-(2,7-diaminopyrido[2,3-d]pyrimidin-6-yl)phenoxy)ethoxy)ethoxy)ethoxy)butyl)-1H-1,2,3-triazol-1-yl)-N-((1S)-3-(((2S)-3-methyl-1-((3R,4S)-4-methyl-2,5-dioxopyrrolidin-3-yl)-1-oxobutan-2-yl)amino)-3-oxo-1-phenylpropyl)undecanamide]
ACC complex
  dissociation from ACC with 1 and 3 together: rapid dissociation
  dissociation from ACC with 1 alone: little or no dissociation

## CC(C)[C@H](NC(=O)C[C@H](NC(=O)CCCCCCCCCCn1cc(CCCCOCCOCCOCCOCCOCCOCCOc2ccc(Br)c(-c3cc4cnc(N)nc4nc3N)c2Br)nn1)c1ccccc1)C(=O)[C@@H]1C(=O)NC(=O)[C@H]1C [Compound 17, 11-(4-(22-(2,4-dibromo-3-(2,7-diaminopyrido[2,3-d]pyrimidin-6-yl)phenoxy)-5,8,11,14,17,20-hexaoxadocos-1-yl)-1H-1,2,3-triazol-1-yl)-N-((1S)-3-(((2S)-3-methyl-1-((3R,4S)-4-methyl-2,5-dioxopyrrolidin-3-yl)-1-oxobutan-2-yl)amino)-3-oxo-1-phenylpropyl)undecanamide]
ACC complex
  dissociation from ACC with 1 and 3 together: rapid dissociation
ACC complex; 100 μM (100-fold excess) of 1 or 3 alone added to ACC-inhibitor complex
  dissociation from ACC with 1 or 3 alone: unable to displace; also recorded: No dissociation
E. coli ΔtolC; PMBN included
  MIC ΔtolC + PMBN: 0.5 µg/mL
E. coli ΔtolC; without PMBN
  MIC ΔtolC: 4 µg/mL (≈ 3.02 µM)
E. coli ACC
  Ki: 0.2 nM

## CC(C)[C@H](NC(=O)C[C@H](NC(=O)CCCCCCCCCCn1cc(CCCCOCCOCCOCCOCCOCCOCCOc2cc(Br)c(-c3cc4cnc(N)nc4nc3N)c(Br)c2)nn1)c1ccccc1)C(=O)[C@@H]1C(=O)NC(=O)[C@H]1C [Compound 17-p, 11-(4-(22-(3,5-dibromo-4-(2,7-diaminopyrido[2,3-d]pyrimidin-6-yl)phenoxy)-5,8,11,14,17,20-hexaoxadocos-1-yl)-1H-1,2,3-triazol-1-yl)-N-((1S)-3-(((2S)-3-methyl-1-((3R,4S)-4-methyl-2,5-dioxopyrrolidin-3-yl)-1-oxobutan-2-yl)amino)-3-oxo-1-phenylpropyl)undecanamide]
E. coli ACC
  Ki: 3.53 nM

Reference: publication PMC10303036 (Journal of medicinal chemistry, 2022)
